Here are results for one compound from publication PMC7819857, “Identification of Inhibitors of Integrin Cytoplasmic Domain Interactions With Syk” (Frontiers in Immunology, 2021).

The target in the assay is T1, wild-type full-length Syk : integrin β3 cytoplasmic domain (Homo sapiens, UniProt P43405).
T1 construct: endogenous in cells; host or cells: THP-1 whole cell lysate
The experiment in a line: Peptide affinity pull-down of Syk from THP-1 whole cell lysate on β3 peptide beads. The format is binding. As to conditions: bβ3(fl) on neutravidin agarose beads, western blot. On the procedure:
THP-1 cells were washed in PIPES buffer (10 mM PIPES, 50 mM NaCl pH 6.8) and resuspended at 10 × 10^6 cells/ml in PIPES lysis buffer [PIPES buffer containing 1% Triton X-100, 1 mM EDTA, 1 mM Na3VO4, 50 mM NaF, 150 mM sucrose, protease inhibitors (cOmplete, Mini, EDTA-free Protease Inhibitor Cocktail, Roche, cat#11836170001)] and 0.1 mM N-ethylmaleimide. The cells were incubated overnight in lysis buffer at 4°C with end-over-end rotation. Lysates were then passed through a 21-gauge needle and centrifuged at 13,000 × g for 30 min at 4°C. Lysate protein concentrations were determined by using Quick Start Bradford Dye reagent (BioRad cat#5000202). […] Eluted samples were run on SDS-PAGE (4–20%, BioRad, cat# 4561093) and immunoblotted for Syk using anti-Syk antibody at 1:1,000 (4D10; SantaCruz) dilution followed by GAM-HRP at 1:5,000 and detected with SuperSignal West Pico (Thermo Scientific, cat# 34580). Western blots were scanned, and band intensity was measured using ImageJ ([31]) to compare and determine the effect of the drug on Syk/β3 binding. […]
Figure 3 Dose-response curves in primary and orthogonal screens. […] Data are expressed as mean fluorescence (Fl520) ± range from duplicates, and one representative experiment of “n” performed is shown. […] Data are expressed as mean abs450 ± SEM from triplicate determinations, and one of three representative experiments is shown. […]
On the technique in general: In western blotting, separated proteins are transferred to a membrane and probed.

For `CC(C)(O/N=C(\C(=O)N[C@@H]1C(=O)N2C(C(=O)[O-])=C(C[n+]3ccccc3)CS[C@H]12)c1csc(N)n1)C(=O)O` [ceftazidime], the “inhibition of wild-type Syk interaction with integrin β3 cytoplasmic domains” value is recorded as “inhibited”.
